Experimental data reported in paper PMC4964431, “Discovery of a Potential HER2 Inhibitor from Natural Products for the Treatment of HER2-Positive Breast Cancer” (International Journal of Molecular Sciences, 2016).
Entries after “also recorded” stand apart in the source; their conditions may differ.

Assays:
[1] = molecular target: T1, HER2 kinase (Homo sapiens, UniProt P04626); experiment: In vitro HER2 kinase inhibition assay (Invitrogen kit PV3366); assay type: biochemical; conditions: HER2 0.20 μg/mL, mean ± SD, read-out: Enzymatic IC50
T1 construct: purchased Invitrogen PV3366
T1 sequence (P04626 23-1255): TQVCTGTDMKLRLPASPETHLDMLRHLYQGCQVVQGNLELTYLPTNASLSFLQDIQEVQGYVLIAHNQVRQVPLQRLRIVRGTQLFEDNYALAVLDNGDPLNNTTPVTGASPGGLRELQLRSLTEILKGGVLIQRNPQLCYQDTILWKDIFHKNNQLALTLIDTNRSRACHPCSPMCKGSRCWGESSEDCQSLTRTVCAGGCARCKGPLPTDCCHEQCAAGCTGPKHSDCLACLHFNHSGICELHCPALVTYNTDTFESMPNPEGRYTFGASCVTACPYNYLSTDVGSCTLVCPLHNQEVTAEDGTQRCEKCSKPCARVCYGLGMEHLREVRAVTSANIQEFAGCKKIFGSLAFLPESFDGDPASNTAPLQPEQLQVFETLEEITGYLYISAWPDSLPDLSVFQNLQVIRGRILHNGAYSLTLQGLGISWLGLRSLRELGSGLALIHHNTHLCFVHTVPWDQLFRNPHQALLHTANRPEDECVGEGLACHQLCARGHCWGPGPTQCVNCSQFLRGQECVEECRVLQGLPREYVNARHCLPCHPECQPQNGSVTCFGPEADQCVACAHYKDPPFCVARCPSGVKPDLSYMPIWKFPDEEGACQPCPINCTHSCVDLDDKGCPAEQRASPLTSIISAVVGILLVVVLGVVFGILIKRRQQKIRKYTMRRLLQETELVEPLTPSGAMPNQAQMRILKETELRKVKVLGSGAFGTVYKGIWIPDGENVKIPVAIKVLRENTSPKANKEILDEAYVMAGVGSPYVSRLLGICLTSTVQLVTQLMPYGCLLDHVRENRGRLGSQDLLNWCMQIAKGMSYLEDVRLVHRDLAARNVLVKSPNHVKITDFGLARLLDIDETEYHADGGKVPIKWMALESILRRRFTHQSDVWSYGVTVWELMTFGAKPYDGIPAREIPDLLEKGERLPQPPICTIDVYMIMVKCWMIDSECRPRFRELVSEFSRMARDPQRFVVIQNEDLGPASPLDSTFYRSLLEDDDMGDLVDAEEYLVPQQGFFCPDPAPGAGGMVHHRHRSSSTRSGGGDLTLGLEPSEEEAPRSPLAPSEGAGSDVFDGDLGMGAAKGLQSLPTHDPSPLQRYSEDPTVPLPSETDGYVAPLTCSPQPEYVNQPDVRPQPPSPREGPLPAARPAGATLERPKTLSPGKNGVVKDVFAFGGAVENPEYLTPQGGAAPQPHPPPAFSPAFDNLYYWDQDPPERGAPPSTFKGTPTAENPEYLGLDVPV
Protocol: The compounds were tested for HER2 kinase inhibition abilities using an HER2 assay kit (Invitrogen, Carlsbad, CA, USA, PV3366). The kinase kit was obtained from Invitrogen; all compounds were purchased from Thermo Electron Corporation (Walthan, MA, USA). The concentrations of HER2 were set as 0.20 μg/mL. The concentration of selected compounds was set as six gradients (0.0001–10 μM) in DMSO. Firstly, 2.5 μL of ATP solution and 2.5 μL of compound solution was added to the 5.0 μL substrate peptide. Then, the mixture solution on the plate was incubated for 1 h at 25 °C. Next, 5 μL of development solution was added to the well, and the plate was incubated for 1 h at 25 °C. To terminate the reaction, 5 μL of stop reagent was added to plate. The Infinite M100 Pro multi-label reader (Tecan, Männedorf, Switzerland) was used to measure the activity. Graph Pad Prism 5.0 (Graph Pad Software, San Diego, CA, USA) was used to calculate the IC50 values.

[2] = test system: HER2-overexpressing BT474 cell line; experiment: Cell proliferation inhibition, CCK-8; assay type: cell-based; conditions: Homo sapiens, BT-474; BT474, 48 h, CCK-8, mean ± SD
Protocol: (§1) All cells were obtained from ATCC (Manassas, VA, USA). The HER2-overexpression SKBR3 cell line and BT474 cell line were cultured in RPMI (Roswell Park Memorial Institute medium) 1640 medium and supplemented with 10% FBS (fetal bovine serum). In addition, 100 U/mL of Penicillin and Streptomycin were added. The cell cultures were maintained at 37 °C in a humidified atmosphere of 5% CO2. Cells were seeded at density 2 × 10^4/mL in 96-well plates per well. The medium was removed after seeding 24 h. The compounds were dissolved in DMSO (dimethyl sulfoxide) and diluted with medium to different concentrations. Then, 20 µL of the selected compounds solution were added in 96-well plates, and incubation continued for 48 h at 37 °C in a humidified atmosphere of 5% CO2. After that, the medium was removed, 90 µL of fresh medium and 10 μL of CCK-8 [54] (Dojindo Molecular Technologies Inc., Kumamoto, Japan) was added to each well and incubated for additional half hour. The activity was measured by microplate reader. Graph Pad Prism 5.0 was used to calculated the IC50 values. The normal breast cells (Hs578Bst) were cultured the same as SKBR3 cells. Cell viability was measured by the CCK-8 assay as previously described.

[3] = test system: HER2-overexpressing SKBR3 cell line; experiment: Cell proliferation inhibition, CCK-8; assay type: cell-based; conditions: Homo sapiens, SK-BR-3; SKBR3, 48 h, CCK-8, mean ± SD
Protocol: as §1

[4] = test system: normal breast cells (Hs578Bst); experiment: Normal breast cell viability, CCK-8; assay type: cell-based; conditions: different concentrations, 24 h of treatment
Protocol: Three compounds (cell inhibition IC50 values < 50 μM) were further tested on the normal breast cell (Hs578Bst) to study the effect on cell proliferation and thus verify the toxicity of normal cells. CCK-8 (Cell Counting kit-8) assays were utilized to determine the effects of different concentrations of three compounds on normal breast cell viability after 24 h of treatment.
as §1

SMILES	IC50 [1]	IC50 [2]	IC50 [3]	cytotoxicity against normal breast cells (cell viability) [4]	cytotoxicity against normal breast cells (cell viability) ([4]; listed as ZINC31178641)
CC(C)=CCC/C(C)=C/Cc1c(O)cc2c(c1O)C(=O)CC(c1ccc(O)c(O)c1)O2 (stereo not drawn) [ZINC15122021, 2-(3,4-dihydroxyphenyl)-6-[(2E)-3,7-dimethylocta-2,6-dienyl]-5,7-dihydroxy-2,3-dihydrochromen-4-one]	0.18 ± 0.002 µM	4.11 ± 0.95 µM	1.22 ± 0.05 µM	little cytotoxicity; also recorded: low cytotoxicity	
CC(C)=CC[C@@H](O)/C(C)=C/Cc1cc(C(=O)O)cc(C/C=C(\C)CO)c1O [ZINC31166919, 4-hydroxy-3-[(2E,4R)-4-hydroxy-3,7-dimethyl-octa-2,6-dienyl]-5-[(E)-4-hydroxy-3-methyl-but-2-enyl]be]	2.63 ± 0.03 µM	6.78 ± 0.68 µM	8.61 ± 0.45 µM	slightly enhanced cytotoxicity with increase of concentration	
O=C(O)c1cccc(C(=O)CC[C@@H]2O[C@@H](n3cnc4c(=O)[nH]cnc43)[C@@H](O)[C@H]2O)c1 [ZINC35456515, 3-[3-[(2S,3R,4S,5R)-3,4-dihydroxy-5-(6-hydroxypurin-9-yl)tetrahydrofuran-2-yl]propanoyl]benzoic]	> 10 µM	> 50 µM	> 50 µM		
CS(=O)(=O)CCNCc1ccc(-c2ccc3ncnc(Nc4ccc(OCc5cccc(F)c5)c(Cl)c4)c3c2)o1 [lapatinib, Lapatinib, reference compound]		0.45 ± 0.03 µM	0.38 ± 0.02 µM		

The next lines start with results.

IC50 [1]	IC50 [2]	IC50 [3]	SMILES	cytotoxicity against normal breast cells (cell viability) [4]	cytotoxicity against normal breast cells (cell viability) ([4]; listed as ZINC31178641)
3.71 ± 0.03 µM	18.6 ± 2.06 µM	26.5 ± 1.62 µM	CC(C)=CCC/C(C)=C/Cc1c(O)cc2c(c1O)C(=O)[C@H](O)[C@@H](c1ccc(O)cc1)O2 [ZINC13378641, (2R,3R)-6-[(2E)-3,7-dimethylocta-2,6-dienyl]-3,5,7-trihydroxy-2-(4-hydroxyphenyl)chroman-4-one]	little cytotoxicity	low cytotoxicity
9.18 ± 0.01 µM	> 50 µM	> 50 µM	C/C(=C\Cc1cc(C(=O)O)cc(CC[C@H](C)C(=O)/C=C/C(C)(C)O)c1O)CO [ZINC49181256, 4-hydroxy-3-[(E,3S)-7-hydroxy-3,7-dimethyl-4-oxo-oct-5-enyl]-5-[(E)-4-hydroxy-3-methyl-but-2-enyl]be]		
